Patent EP1487791B1, “A NOVEL ANTIFUNGAL MOLECULE 2-(3,4-DIMETHYL-2,5-DIHYDRO-1H-PYRROL-2-YL)- METHYLETHYL PENTANOATE” (priority 2002, dated 2003)
Values after ≈ are worked out from the molar mass of the structure shown.

How the values were obtained:
Assay type in all cases: cell-based
Aspergillus sp. = assay: Microbroth dilution assay, MIC over the three species; conditions: no visual growth of the three species of Aspergillus, 48 h
Procedure: (§1) Pathogenic strains of fungi were obtained from the Mycology Department of Vallabhbhai Patel Chest Institute, Delhi. All the strains were grown on Sabouraud dextrose agar at 37°C. The conidia form these cultures were harvested and suspended in Sabouraud maltose broth. The number of conidia was counted using haemocytometer and their number in the suspension was adjusted to as per need of the experiment.
The antifungal susceptibility of the fungi to various fractions or the purified component was assayed by the microbroth, dilution method (Forthergill A.W. and McGough A.W., 1995, Clin. Microbiol. Procedure Handbook. In Vitro susceptibility Testing of Yeast, 5.15.1-5.15.15). The fungal spores were harvested from 96-h cultures and their number adjusted to 1x10^6 per ml. The Sabouraud Dextrose medium was dissolved in glass double distilled water and autoclaved at 10 psi for 15 min. 90-µl medium was added into the wells of cell culture plates. The different concentrations of the extract, fractions or the purified compound were prepared in duplicate wells and then the wells were inoculated with 10 µl of spore suspension. The plates were incubated at 37°C and examined macroscopically after 48 h for the growth of fungal mycelia. The activity was represented as -ve if growth was there and +ve if medium appeared clear with out any growth of fungi. […]

A.fumigatus = assay: Disc diffusion assay
Procedure: as §1
The disc diffusion test was performed as per described in the section of details of invention. Amphotericin B 1.25 µg/disc was used in assay as positive control standard drug. Additional discs impregnated with equivalent amount of solvent were also used in the assay as negative controls (Fig: 5). […] Table 2: Antifungal activity of compound by disc diffusion method
The potency of the compound was determined with the help of standard curve constructed using amphotericin B as standard drug against A.fumigatus. Standard curve was prepared according to method given in the Indian Pharmacopoeia. The corrected values of diameter of zone of inhibition along with lowest and highest values were determined. These values were plotted on semilog paper to prepare standard curve. The value of diameter of zone of inhibition obtained for compound was put into the standard curve and corresponding dose producing the effect equivalent to amphotericin B was determined to find out the potency of the compound (Fig: 6).

Aspergillus species = assay: Spore germination inhibition assay; conditions: percent spore germination inhibition, 10 hrs at 37° C
Procedure: as §1
The modified spore germination inhibition assay was performed as described earlier (Sureder P. and Janaiah C., 1987, Ind. J. Expt. Biol., 25, 233-234). The fungal species were grown on Sabouraud dextrose agar plates at 37°C for 96 h. […] The conidia were counted and their number in the suspension was adjusted to 1x10^4 per ml. The standard drug Amphotericin B and test samples were initially dissolved in minimal quantity of dimethylsulfoxide (DMSO) and then diluted with Sabouraud dextrose medium. […] The number of germinated and non-germinated spores was counted. The percent spore germination inhibition (PSGI) was calculated using following formula PSGI = 100-(No.of spores germinated in drug treated well)/(No.of spores germinated in control well) [formula] […]
The spore germination inhibition assay was performed to evaluate the activity of the compound. […] The number of germinated and non-germinated spores was counted and the percent spore germination inhibition (PSGI) was calculated. […]

**Q.** `CCCCC(=O)OC(C)CC1NCC(C)=C1C` (stereo not shown) [PC-1, 2-(3,4-dimethyl-2,5-dihydro-1H-pyrrol-2-yl)-1-methylethyl pentanoate] was tested. Which MIC (Aspergillus sp.) did it give?
**A.** 87.5 mg/L (≈ 366 µM)

**Q.** And the “amount of amphotericin B producing an equivalent diameter of zone of inhibition” value (A.fumigatus; 10 µg/disc of the compound, standard curve with amphotericin B)?
**A.** 2.67 µg

**Q.** And the zone of inhibition at 5 µg/disc (A.fumigatus; Aspergillus fumigatus, 5.0 µg/disc, 48 hrs, read-out: Diameter of zone of inhibition)?
**A.** 6.25 mm

**Q.** What about the zone of inhibition at 10 µg/disc (A.fumigatus; Aspergillus fumigatus, 10.0 µg/disc, 48 hrs, read-out: Diameter of zone of inhibition) of the same compound?
**A.** 8.5 mm

**Q.** And the zone of inhibition at 20 µg/disc (A.fumigatus; Aspergillus fumigatus, 20.0 µg/disc, 48 hrs, read-out: Diameter of zone of inhibition)?
**A.** 9.25 mm

**Q.** And the “less potent as compared to amphotericin B” value (A.fumigatus; disc diffusion standard curve)?
**A.** 3.74 time

**Q.** What about the MIC (Aspergillus species) of the same compound?
**A.** 87.5 mg/L (≈ 366 µM)
